Data as given in patent publication US9517224B2, “Methods of treating patients infected with HIV and HTLV” (THE UNITED STATES OF AMERICA, AS REPRESENTED BY THE …, priority 2012, dated 2016).

System: PBMC's from normal volunteers
Test: mRNA for IL-4, INF-gamma, TNF-alpha and CD69 in PBMCs from normal volunteers
Assay type: cell-based

ionomycine
CD69 mRNA, relative fold difference versus untreated control: 1.639 fold | IFN-γ mRNA, relative fold difference versus untreated control: 1.608 fold | IL-4 mRNA, relative fold difference versus untreated control: 0.716 fold | TNF-α mRNA, relative fold difference versus untreated control: 0.657 fold
